From ChEMBL document CHEMBL3988442, “University of Dundee, Small-Polar-MMV Screening Library” (2021)
“And” between values parts separate entries of the source, which are not always exact repeats. Identical values can stand only once.

How the values were obtained:
Assay type in all cases: functional
[1] = molecular target: T1, Arginase-2, mitochondrial (Homo sapiens, UniProt P78540); experiment: in vitro enzyme assay to detect the production of urea directly proportional to the activity of Arginase II
T1 sequence (P78540 whole entry): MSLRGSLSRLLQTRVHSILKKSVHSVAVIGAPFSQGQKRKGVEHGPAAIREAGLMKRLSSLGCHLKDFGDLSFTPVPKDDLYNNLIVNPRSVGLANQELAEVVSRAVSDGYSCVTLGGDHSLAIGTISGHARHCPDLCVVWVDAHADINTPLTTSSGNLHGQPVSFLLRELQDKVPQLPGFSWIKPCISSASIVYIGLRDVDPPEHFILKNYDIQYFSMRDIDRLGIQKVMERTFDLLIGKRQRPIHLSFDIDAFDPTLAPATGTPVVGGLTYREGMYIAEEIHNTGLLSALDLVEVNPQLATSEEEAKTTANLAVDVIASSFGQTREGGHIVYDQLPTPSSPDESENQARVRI

Lysine--tRNA ligase = Lysine--tRNA ligase (Plasmodium falciparum (isolate 3D7), UniProt Q8IDJ8); experiment: Pf-KRS-1 (Lysyl-RNA Synthetase-1, KRS-1, cytosolic KRS) from Plasmodium falciparum. Inhibitor assay, 384 well plate, luminescence read.
[2] = molecular target: Protein translocase subunit SecA (Escherichia coli (strain K12), UniProt P10408); experiment: Assay to Identify E. coli SecA ATPase Inhibitors
Histidine--tRNA ligase [3] = molecular target: T2, Histidine--tRNA ligase (Leishmania infantum, UniProt A4I591); experiment: Leishmania infantum Histidine tRNA synthetase (LdHisRS)
T2 sequence (A4I591 whole entry): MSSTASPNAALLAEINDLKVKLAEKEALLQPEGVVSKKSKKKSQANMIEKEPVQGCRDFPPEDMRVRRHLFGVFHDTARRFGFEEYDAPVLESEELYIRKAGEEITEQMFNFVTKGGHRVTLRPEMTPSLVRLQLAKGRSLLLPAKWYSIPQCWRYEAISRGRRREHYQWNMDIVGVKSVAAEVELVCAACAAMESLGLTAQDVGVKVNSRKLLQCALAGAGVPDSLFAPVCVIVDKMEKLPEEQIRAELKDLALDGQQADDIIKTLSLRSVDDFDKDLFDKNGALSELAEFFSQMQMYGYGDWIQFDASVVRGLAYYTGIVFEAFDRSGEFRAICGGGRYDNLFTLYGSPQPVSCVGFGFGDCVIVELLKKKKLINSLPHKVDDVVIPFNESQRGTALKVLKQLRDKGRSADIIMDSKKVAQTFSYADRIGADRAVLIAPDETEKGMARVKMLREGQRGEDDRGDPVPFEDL

ClpP1P2 = ClpP1P2 (Mycobacterium tuberculosis (strain ATCC 25618 / H37Rv), UniProt P9WPC3+P9WPC5); experiment: in vitro assay to detect presence of AMC directly proportional to the activity of ClpP1P2. GHDDI collaboration.
Histidine--tRNA ligase [4] = molecular target: T3, Histidine--tRNA ligase (Trypanosoma cruzi (strain CL Brener), UniProt Q4DA54); experiment: Trypanosoma cruzi histidyl tRNA synthetase (Tc-HisRS)
T3 sequence (Q4DA54 whole entry): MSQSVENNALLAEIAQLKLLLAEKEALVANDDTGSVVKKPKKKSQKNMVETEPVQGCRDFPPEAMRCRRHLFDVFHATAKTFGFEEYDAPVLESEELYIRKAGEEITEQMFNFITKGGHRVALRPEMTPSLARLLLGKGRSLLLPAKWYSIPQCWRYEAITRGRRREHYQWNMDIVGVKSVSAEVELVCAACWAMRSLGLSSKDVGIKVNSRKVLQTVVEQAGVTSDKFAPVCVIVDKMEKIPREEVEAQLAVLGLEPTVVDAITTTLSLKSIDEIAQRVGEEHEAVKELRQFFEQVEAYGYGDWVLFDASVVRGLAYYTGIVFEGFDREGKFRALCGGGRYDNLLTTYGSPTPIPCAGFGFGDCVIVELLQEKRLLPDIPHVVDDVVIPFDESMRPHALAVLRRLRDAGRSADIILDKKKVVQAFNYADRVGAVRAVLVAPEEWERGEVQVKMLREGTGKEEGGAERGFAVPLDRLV

[5] = molecular target: Chromo domain-containing protein 1 (Saccharomyces cerevisiae (strain ATCC 204508 / S288c) (Baker's yeast), UniProt P32657); experiment: ScCHD-1 Enzyme Inhibition Assay
Schistosoma mansoni = experiment: High throughput screening of compounds against Schistosoma mansoni motility; parameters: dose or concentration left out as unconfirmed
[6] = molecular target: T4, Coenzyme A biosynthesis bifunctional protein CoaBC (Mycobacterium tuberculosis (strain ATCC 25618 / H37Rv), UniProt P9WNZ1); experiment: Biomol Green assay for MtCoaBC inhibitor, OD650 read
T4 sequence (P9WNZ1 whole entry): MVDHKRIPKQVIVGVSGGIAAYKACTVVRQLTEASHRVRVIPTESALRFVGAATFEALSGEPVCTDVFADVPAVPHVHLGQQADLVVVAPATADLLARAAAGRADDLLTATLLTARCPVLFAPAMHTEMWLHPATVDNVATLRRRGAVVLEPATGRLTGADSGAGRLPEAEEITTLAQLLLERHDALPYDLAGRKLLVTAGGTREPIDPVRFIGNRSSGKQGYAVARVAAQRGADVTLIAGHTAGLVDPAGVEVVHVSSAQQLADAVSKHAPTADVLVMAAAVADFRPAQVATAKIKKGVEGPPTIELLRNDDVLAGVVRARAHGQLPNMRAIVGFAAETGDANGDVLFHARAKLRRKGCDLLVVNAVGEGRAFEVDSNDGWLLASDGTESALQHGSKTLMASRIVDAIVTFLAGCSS

[7] = molecular target: Polyketide synthase Pks13 (Mycobacterium tuberculosis (strain ATCC 25618 / H37Rv), UniProt I6X8D2); experiment: Mycobacterium tuberculosis Polyketide synthase 13 Thioesterase (PKS13)
Chain of Polyketide synthase Pks13 (I6X8D2 whole entry): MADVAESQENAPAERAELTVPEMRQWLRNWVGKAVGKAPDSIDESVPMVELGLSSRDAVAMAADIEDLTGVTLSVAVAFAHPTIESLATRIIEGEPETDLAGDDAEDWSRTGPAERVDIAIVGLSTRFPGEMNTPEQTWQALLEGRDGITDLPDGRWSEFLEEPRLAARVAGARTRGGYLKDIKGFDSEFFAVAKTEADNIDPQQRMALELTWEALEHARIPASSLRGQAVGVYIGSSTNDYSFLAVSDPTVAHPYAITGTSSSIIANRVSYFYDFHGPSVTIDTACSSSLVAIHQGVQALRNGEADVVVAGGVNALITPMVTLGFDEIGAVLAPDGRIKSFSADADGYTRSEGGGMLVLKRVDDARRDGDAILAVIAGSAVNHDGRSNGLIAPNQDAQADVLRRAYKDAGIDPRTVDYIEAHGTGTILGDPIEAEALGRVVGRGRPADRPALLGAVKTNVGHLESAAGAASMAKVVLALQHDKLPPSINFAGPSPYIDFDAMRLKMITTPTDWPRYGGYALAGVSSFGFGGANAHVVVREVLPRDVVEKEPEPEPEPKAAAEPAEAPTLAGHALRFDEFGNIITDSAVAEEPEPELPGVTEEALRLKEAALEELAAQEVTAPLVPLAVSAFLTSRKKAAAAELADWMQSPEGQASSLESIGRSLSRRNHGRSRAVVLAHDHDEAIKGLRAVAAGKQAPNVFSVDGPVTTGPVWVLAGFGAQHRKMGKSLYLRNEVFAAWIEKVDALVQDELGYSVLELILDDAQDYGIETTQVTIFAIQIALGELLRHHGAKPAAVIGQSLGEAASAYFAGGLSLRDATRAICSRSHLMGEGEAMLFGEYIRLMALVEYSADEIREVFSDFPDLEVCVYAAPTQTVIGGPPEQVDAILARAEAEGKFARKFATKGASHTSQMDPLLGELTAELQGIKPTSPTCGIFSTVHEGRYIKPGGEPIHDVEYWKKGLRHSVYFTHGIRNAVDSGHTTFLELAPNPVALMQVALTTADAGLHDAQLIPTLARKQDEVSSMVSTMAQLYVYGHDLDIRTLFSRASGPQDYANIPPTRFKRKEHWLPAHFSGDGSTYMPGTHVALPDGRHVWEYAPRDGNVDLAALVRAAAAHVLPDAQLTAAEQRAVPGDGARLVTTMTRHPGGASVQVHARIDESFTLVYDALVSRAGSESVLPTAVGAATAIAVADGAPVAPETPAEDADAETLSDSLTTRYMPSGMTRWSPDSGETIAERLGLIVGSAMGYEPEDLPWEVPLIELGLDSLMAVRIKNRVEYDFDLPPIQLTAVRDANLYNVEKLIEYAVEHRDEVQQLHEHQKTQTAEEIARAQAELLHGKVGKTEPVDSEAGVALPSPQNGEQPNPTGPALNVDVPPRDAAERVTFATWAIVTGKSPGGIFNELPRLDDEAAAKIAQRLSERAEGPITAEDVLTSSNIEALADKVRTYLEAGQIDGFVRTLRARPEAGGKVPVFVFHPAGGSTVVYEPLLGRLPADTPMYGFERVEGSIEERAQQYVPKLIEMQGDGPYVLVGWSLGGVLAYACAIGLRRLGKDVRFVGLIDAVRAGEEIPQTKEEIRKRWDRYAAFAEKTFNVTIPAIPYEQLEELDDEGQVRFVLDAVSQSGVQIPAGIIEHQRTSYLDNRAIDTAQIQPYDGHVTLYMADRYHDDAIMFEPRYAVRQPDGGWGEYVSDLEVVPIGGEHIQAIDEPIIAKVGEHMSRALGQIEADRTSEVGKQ

Chain of Protein translocase subunit SecA (P10408 whole entry): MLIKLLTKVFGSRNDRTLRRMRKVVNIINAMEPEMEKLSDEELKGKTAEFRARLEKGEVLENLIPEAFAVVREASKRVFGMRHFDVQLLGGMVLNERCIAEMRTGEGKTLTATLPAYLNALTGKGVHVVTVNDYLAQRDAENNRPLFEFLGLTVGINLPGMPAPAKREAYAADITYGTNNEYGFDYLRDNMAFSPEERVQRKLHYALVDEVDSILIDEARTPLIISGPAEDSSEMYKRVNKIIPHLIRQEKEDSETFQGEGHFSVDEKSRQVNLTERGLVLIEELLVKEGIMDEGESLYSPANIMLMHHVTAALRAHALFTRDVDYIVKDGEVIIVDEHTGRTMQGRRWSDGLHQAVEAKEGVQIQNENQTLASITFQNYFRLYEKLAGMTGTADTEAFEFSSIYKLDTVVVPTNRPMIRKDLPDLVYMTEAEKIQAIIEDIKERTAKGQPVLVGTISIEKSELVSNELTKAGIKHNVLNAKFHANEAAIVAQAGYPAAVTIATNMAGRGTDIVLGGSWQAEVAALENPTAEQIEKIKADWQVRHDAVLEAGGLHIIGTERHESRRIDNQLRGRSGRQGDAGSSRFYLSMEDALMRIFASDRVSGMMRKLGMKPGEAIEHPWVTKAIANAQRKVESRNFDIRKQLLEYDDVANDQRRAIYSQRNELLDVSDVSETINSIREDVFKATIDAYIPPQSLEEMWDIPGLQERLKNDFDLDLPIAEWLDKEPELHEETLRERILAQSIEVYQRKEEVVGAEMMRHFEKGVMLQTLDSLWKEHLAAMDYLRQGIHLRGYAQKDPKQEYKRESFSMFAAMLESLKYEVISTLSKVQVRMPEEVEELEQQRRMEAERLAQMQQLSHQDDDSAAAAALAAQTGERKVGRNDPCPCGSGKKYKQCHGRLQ
Chain of Lysine--tRNA ligase (Q8IDJ8 whole entry): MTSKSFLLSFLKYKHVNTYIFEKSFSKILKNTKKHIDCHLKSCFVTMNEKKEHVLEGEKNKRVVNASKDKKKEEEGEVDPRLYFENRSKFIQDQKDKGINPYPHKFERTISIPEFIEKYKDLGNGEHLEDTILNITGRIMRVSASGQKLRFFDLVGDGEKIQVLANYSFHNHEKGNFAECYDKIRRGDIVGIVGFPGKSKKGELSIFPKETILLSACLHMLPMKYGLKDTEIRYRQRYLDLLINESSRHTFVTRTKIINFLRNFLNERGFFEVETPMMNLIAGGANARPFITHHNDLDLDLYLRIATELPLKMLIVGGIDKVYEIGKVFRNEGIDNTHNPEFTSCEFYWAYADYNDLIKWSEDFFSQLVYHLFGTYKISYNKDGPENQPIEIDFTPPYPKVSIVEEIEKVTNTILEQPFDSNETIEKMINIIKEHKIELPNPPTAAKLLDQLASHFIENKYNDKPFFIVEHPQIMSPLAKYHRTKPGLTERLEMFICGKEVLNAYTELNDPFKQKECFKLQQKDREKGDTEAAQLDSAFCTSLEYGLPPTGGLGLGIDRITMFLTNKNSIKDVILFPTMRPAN
Chain of ClpP1P2 (P9WPC5 whole entry): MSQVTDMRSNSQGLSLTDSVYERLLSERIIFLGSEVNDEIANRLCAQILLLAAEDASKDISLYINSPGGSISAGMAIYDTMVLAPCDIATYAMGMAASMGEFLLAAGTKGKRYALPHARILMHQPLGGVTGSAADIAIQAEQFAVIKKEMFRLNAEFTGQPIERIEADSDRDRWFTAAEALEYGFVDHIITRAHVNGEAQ
Chain of ClpP1P2 (P9WPC3 whole entry): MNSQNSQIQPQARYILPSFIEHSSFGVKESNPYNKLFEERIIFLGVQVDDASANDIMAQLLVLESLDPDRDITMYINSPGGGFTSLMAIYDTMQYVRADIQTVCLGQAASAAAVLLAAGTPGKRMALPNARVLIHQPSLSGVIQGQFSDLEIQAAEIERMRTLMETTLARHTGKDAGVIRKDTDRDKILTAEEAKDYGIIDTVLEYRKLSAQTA
Chain of Chromo domain-containing protein 1 (P32657 whole entry, the tested form may be a part): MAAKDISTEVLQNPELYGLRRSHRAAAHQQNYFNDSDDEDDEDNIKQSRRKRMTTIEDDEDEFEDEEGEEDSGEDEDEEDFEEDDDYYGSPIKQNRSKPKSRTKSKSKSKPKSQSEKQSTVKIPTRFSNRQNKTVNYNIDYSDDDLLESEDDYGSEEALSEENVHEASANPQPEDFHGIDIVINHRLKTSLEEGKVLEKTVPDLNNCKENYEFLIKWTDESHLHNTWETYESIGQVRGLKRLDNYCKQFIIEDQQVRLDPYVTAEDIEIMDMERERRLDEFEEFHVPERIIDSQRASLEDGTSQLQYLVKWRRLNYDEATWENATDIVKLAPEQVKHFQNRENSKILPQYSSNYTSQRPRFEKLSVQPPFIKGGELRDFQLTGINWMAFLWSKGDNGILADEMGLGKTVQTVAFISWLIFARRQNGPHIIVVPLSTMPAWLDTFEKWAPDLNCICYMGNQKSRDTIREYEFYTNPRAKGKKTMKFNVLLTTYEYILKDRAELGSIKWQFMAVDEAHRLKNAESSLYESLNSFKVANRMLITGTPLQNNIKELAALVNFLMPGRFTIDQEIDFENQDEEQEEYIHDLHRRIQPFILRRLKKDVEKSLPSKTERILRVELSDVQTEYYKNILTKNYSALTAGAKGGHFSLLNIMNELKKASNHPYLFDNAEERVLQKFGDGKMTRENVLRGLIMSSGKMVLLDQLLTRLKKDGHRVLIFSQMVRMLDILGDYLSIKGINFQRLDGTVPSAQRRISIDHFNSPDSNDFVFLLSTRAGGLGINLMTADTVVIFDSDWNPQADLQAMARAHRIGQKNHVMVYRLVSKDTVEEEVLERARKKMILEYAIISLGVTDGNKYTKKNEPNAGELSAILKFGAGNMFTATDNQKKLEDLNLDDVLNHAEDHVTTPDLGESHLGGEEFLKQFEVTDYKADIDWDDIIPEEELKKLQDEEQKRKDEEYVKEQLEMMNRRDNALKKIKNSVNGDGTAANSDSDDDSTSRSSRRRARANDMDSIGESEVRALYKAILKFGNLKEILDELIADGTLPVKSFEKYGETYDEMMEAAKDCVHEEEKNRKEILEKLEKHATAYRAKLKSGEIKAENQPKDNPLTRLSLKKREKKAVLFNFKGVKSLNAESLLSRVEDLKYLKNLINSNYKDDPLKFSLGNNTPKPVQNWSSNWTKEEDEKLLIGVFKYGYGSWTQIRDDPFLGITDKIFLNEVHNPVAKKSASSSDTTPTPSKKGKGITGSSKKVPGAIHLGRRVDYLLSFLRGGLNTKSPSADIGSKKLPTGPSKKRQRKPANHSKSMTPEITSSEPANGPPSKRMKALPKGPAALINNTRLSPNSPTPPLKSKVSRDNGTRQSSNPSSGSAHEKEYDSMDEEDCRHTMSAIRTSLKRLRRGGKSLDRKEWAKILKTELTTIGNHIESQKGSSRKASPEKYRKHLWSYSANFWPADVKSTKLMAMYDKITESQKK

Row | SMILES | IC50 [1] [µM] | also measured
1 | CN(Cc1ccccn1)C1COC2(CCN(Cc3cccnc3)CC2)C1 (stereo unspecified) | > 100 | –
2 | CCn1c(NCc2ccco2)nc2c(C)nn(C)c2c1=O | > 100 | –
3 | COc1ccccc1CN1CCC2(CC1)CC(Oc1ccccn1)CO2 (stereo unspecified) | > 100 | –
4 | CNc1nc2c(s1)C(c1ccccc1F)CC(=O)N2 (stereo unspecified) | – | IC50 (Lysine--tRNA ligase): > 50.1 µM; IC50 [2]: > 100 µM and 93.8 µM; IC50 (Histidine--tRNA ligase [3]): 2.32 µM and 2.22 µM and 2.27 µM and 2.53 µM; IC50 (ClpP1P2): > 100 µM; IC50 (Histidine--tRNA ligase [4]): 5.69 µM and 4.89 µM
5 | CSc1ccccc1C(C(=O)O)N1CCN(Cc2ccccn2)CC1 (stereo unspecified) | > 100 | –
6 | CN(CCO)C(=O)c1coc(CN2CCN(c3ccccc3F)CC2)n1 | > 100 | IC50 [5]: > 29.5 µM
7 | COc1ccc(-n2ncc(C(=O)NCC3COC(C)(C)O3)c2N)cc1 (stereo unspecified) | – | IC50 [2]: > 100 µM
8 | CS(=O)(=O)NCC(=O)N1CCCC1c1noc(C2CC2)n1 (stereo unspecified) | > 100 | –
9 | Cc1cc(CNC(=O)N2CCN(c3nc(C)c(C)s3)CC2)no1 | > 100 | –
10 | CNc1nc2c(s1)C(c1ccccc1Cl)CC(=O)N2 (stereo unspecified) | – | IC50 (Lysine--tRNA ligase): > 50.1 µM; IC50 [2]: > 100 µM; IC50 (Histidine--tRNA ligase [3]): 2.19 µM and 2.57 µM and 2.79 µM and 2.64 µM; IC50 (Histidine--tRNA ligase [4]): 6.72 µM and 7.27 µM
11 | CC1=Nc2c(c(=O)[nH]n2C2CCOCC2)C(c2cccc(Br)c2)S1 (stereo unspecified) | > 100 | –
12 | O=C(NCc1ccncc1)N(Cc1ccccc1F)C1CC1 | > 100 | –
13 | CN(C)C(=O)[C@@H]1CCO[C@@H]2CCN(CCc3ccccc3)C[C@@H]21 | > 100 | IC50 (Lysine--tRNA ligase): > 50.1 µM
14 | COc1cccc(CNCc2nnc3n2CC(C(F)(F)F)CC3)c1 (stereo unspecified) | > 100 | –
15 | CCN(C)c1ccc(C(=O)N(CCOC)Cc2ccccn2)cc1 | > 100 | –
16 | COCc1c(C(=O)NC2CCCC2)nnn1-c1ccc(C)cc1 | – | IC50 [2]: > 100 µM
17 | Cc1ccc([C@@H]2CN(S(=O)(=O)N(C)C)C[C@H]2N(C)C)cc1 | > 100 | –
18 | COCCN1C[C@@H]2CCCO[C@@H]2[C@H](N(C)Cc2ccco2)C1 | > 100 | –
19 | O=c1[nH]c2c(c(=O)n1C1CCCCC1)CCC2Nc1ccccc1Cl (stereo unspecified) | > 100 | IC50 (Lysine--tRNA ligase): 14 µM
20 | COc1ccccc1Oc1ncccc1CNC(=O)C(C)N1CCCC1 (stereo unspecified) | > 100 | Percent Effect (Schistosoma mansoni): 13.35%
21 | O=C(COc1cccc(Br)c1)N1CCN(c2nccs2)CC1 | > 100 | IC50 [5]: > 29.5 µM
22 | O=C(CO)N1CCC(c2cncc(-c3cccc(Cl)c3)n2)CC1 | > 100 | IC50 [6]: > 30.2 µM
23 | COC(=O)Cn1cccc(S(=O)(=O)N2CCC(C)CC2)c1=O | > 100 | IC50 [7]: > 100 µM
24 | COCCn1ccc2cc(NC(C)=O)ccc21 | – | IC50 [2]: > 100 µM
25 | CN(C)c1ncc(CN2CCOC(C(=O)Nc3ccccc3)C2)cn1 (stereo unspecified) | > 100 | –
26 | CNc1nc2c(s1)C(c1cccc(F)c1F)CC(=O)N2 (stereo unspecified) | – | IC50 (Lysine--tRNA ligase): > 50.1 µM; IC50 [2]: 93.5 µM and 33.1 µM; IC50 (ClpP1P2): > 100 µM; IC50 (Histidine--tRNA ligase [4]): 22.5 µM and 14.6 µM
27 | CCC(C(=O)NC)N(c1cccc(C)c1)S(C)(=O)=O (stereo unspecified) | > 100 | –
28 | Cc1nn(CCO)c(C)c1CNC1CCc2c(Cl)cccc21 (stereo unspecified) | > 100 | –
29 | O=C(Cn1ccc2c(Cl)cccc21)N1CCC2(CC1)OCCO2 | > 100 | –
